The values that follow come from patent US11702422B2, “Imidazopyridazines as modulators of IL-17” (Janssen Pharmaceutica NV, priority 2020, dated 2023).

pIC50: −log10 of the molar value.

For test [1], the target named is IL-17A(FLAG-Tagged): IL-17RA(His-Tagged) (Homo sapiens, UniProt Q16552, K93Q). The test can be described thus: IL-17A(FLAG-Tagged): IL-17RA(His-Tagged) Binding Disruption Eu-HTRF Assay. As to conditions: IL-17A/IL-17RA binding disruption, simple average if tested more than once. The procedure, abridged: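 IC50 comes from a one-site competition fit of the HTRF 665/620 nm ratio. Compound dilutions (2-fold, 22 points) were held 1 h rt with FLAG-tagged IL-17A dimer, then His-tagged IL-17RA plus Eu-cryptate anti-FLAG and D2 anti-His antibodies were added for 2 h rt.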

For test [2], the system named is IL-17A-induced G-CSF production in human normal keratinocyte (NHK). Nature of the test: NHK Assay: IL-17A-induced G-CSF production in human normal keratinocytes. It is filed as cell-based. As to conditions: Homo sapiens, Keratinocyte, 24 h, adult normal human keratinocytes, IL-17A 5 ng/mL, simple average if tested more than once. The method in brief:
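IL-17A (5 ng/mL final) was pre-incubated 1 h at rt with titrated compound and then added to adult normal human keratinocytes (5% FBS, 0.2% DMSO) for 24 h at 37° C. Supernatant G-CSF was measured by HTRF against a standard curve to derive IC50. Viability was checked by CellTiter-Glo.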

UniProt Q16552, sequence (Q16552 with tags, fused parts or gaps K93Q): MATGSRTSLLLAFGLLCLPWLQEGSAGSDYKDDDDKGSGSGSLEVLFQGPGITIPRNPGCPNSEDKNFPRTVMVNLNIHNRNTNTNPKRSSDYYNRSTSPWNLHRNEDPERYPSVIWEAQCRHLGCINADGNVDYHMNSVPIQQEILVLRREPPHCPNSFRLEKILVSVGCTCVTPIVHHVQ

As for `O=C(CCC(F)(F)F)N[C@@H](c1cnn2cc([C@@H](NC(=O)c3cccnn3)C3CCC(F)(F)CC3)nc2c1)C1CC1` [Example 458, N—((S)-(7-((R)-Cyclopropyl(4,4,4-trifluorobutanamido)methyl)imidazo[1,2-b]pyridazin-2-yl)(4,4-difluorocyclohexyl)methyl)pyridazine-3-carboxamide], the pIC50 was 5.11 in test [1] and under 4.70 in test [2].
The matching figures for `COc1cc(C(=O)N[C@H](c2cn3ncc([C@H](NC(=O)CCC(F)(F)F)C4CC4)cc3n2)C2CCC(F)(F)CC2)cnn1` [Example 459, N—((S)-(7-((R)-Cyclopropyl(4,4,4-trifluorobutanamido)methyl)imidazo[1,2-b]pyridazin-2-yl)(4,4-difluorocyclohexyl)methyl)-6-methoxypyridazine-4-carboxamide]: 5.89 and under 4.70.
The matching figures for `O=C(CCC(F)(F)F)N[C@@H](c1cnn2cc([C@@H](NC(=O)c3cc(C4CC4)ccn3)C3CCC(F)(F)CC3)nc2c1)C1CC1` [Example 460, 4-Cyclopropyl-N—((S)-(7-((R)-cyclopropyl(4,4,4-trifluorobutanamido)methyl)imidazo[1,2-b]pyridazin-2-yl)(4,4-difluorocyclohexyl)methyl)picolinamide]: 6.96 and 5.96.
For `N#Cc1ccnc(C(=O)N[C@H](c2cn3ncc([C@H](NC(=O)CCC(F)(F)F)C4CC4)cc3n2)C2CCC(F)(F)CC2)c1` [Example 461, 4-Cyano-N—((S)-(7-((R)-cyclopropyl(4,4,4-trifluorobutanamido)methyl)imidazo[1,2-b]pyridazin-2-yl)(4,4-difluorocyclohexyl)methyl)picolinamide] the same measures were 5.80 and under 4.70.
On to `COCc1cncc(C(=O)N[C@H](c2cn3ncc([C@H](NC(=O)CCC(F)(F)F)C4CC4)cc3n2)C2CCC(F)(F)CC2)c1` [Example 462, N—((S)-(7-((R)-Cyclopropyl(4,4,4-trifluorobutanamido)methyl)imidazo[1,2-b]pyridazin-2-yl)(4,4-difluorocyclohexyl)methyl)-5-(methoxymethyl)nicotinamide], for which the pIC50 in test [1] was 6.85; in test [2] it was 5.96.
The matching figures for `CC(C)c1ccsc1C(=O)N[C@H](c1cn2ncc([C@H](NC(=O)CCC(F)(F)F)C3CC3)cc2n1)C1CCC(F)(F)CC1` [Example 463, N—((S)-(7-((R)-Cyclopropyl(4,4,4-trifluorobutanamido)methyl)imidazo[1,2-b]pyridazin-2-yl)(4,4-difluorocyclohexyl)methyl)-3-isopropylthiophene-2-carboxamide]: 7.03 and 6.42.
As for `COc1cc(C(=O)N[C@H](c2cn3ncc([C@H](NC(=O)CCC(F)(F)F)C4CC4)cc3n2)C2CCC(F)(F)CC2)ncn1` [Example 465, N—((S)-(7-((R)-Cyclopropyl(4,4,4-trifluorobutanamido)methyl)imidazo[1,2-b]pyridazin-2-yl)(4,4-difluorocyclohexyl)methyl)-6-methoxypyrimidine-4-carboxamide], the pIC50 was 6.04 in test [1] and 5.80 in test [2].
The matching figures for `Cn1nnnc1C(=O)N[C@H](c1cn2ncc([C@H](NC(=O)CCC(F)(F)F)C3CC3)cc2n1)C1CCC(F)(F)CC1` [Example 468, N—((S)-(7-((R)-Cyclopropyl(4,4,4-trifluorobutanamido)methyl)imidazo[1,2-b]pyridazin-2-yl)(4,4-difluorocyclohexyl)methyl)-1-methyl-1H-tetrazole-5-carboxamide]: 6.12 and 5.77.
For `Cn1ccnc1C(=O)N[C@H](c1cn2ncc([C@H](NC(=O)CCC(F)(F)F)C3CC3)cc2n1)C1CCC(F)(F)CC1` [Example 469, N—((S)-(7-((R)-Cyclopropyl(4,4,4-trifluorobutanamido)methyl)imidazo[1,2-b]pyridazin-2-yl)(4,4-difluorocyclohexyl)methyl)-1-methyl-1H-imidazole-2-carboxamide] the same measures were 5.92 and under 4.70.
As to `CCc1cnoc1C(=O)N[C@H](c1cn2ncc([C@H](NC(=O)CCC(F)(F)F)C3CC3)cc2n1)C1CCC(F)(F)CC1` [Example 470, N—((S)-(7-((R)-Cyclopropyl(4,4,4-trifluorobutanamido)methyl)imidazo[1,2-b]pyridazin-2-yl)(4,4-difluorocyclohexyl)methyl)-4-ethylisoxazole-5-carboxamide], the pIC50 in test [1] is 7.27; in test [2], 6.96.
For `Cc1ncoc1C(=O)N[C@H](c1cn2ncc([C@H](NC(=O)CCC(F)(F)F)C3CC3)cc2n1)C1CCC(F)(F)CC1` [Example 471, N—((S)-(7-((R)-Cyclopropyl(4,4,4-trifluorobutanamido)methyl)imidazo[1,2-b]pyridazin-2-yl)(4,4-difluorocyclohexyl)methyl)-4-methyloxazole-5-carboxamide] the same measures were 6.42 and 5.64.
The matching figures for `Cc1nc(C)c(C(=O)N[C@H](c2cn3ncc([C@H](NC(=O)CCC(F)(F)F)C4CC4)cc3n2)C2CCC(F)(F)CC2)o1` [Example 472, N—((S)-(7-((R)-Cyclopropyl(4,4,4-trifluorobutanamido)methyl)imidazo[1,2-b]pyridazin-2-yl)(4,4-difluorocyclohexyl)methyl)-2,4-dimethyloxazole-5-carboxamide]: 4.35 and under 4.70.
Consider `Cc1noc(C(=O)N[C@H](c2cn3ncc([C@H](NC(=O)CCC(F)(F)F)C4CC4)cc3n2)C2CCC(F)(F)CC2)c1C` [Example 473, N—((S)-(7-((R)-Cyclopropyl(4,4,4-trifluorobutanamido)methyl)imidazo[1,2-b]pyridazin-2-yl)(4,4-difluorocyclohexyl)methyl)-3,4-dimethylisoxazole-5-carboxamide], for which the negative-log IC50 (pIC50) in test [1] is 5.07; in test [2], under 4.70.
The matching figures for `O=C(CCC(F)(F)F)N[C@@H](c1cnn2cc([C@@H](NC(=O)c3conc3C3CCC3)C3CCC(F)(F)CC3)nc2c1)C1CC1` [Example 474, 3-Cyclobutyl-N—((S)-(7-((R)-cyclopropyl(4,4,4-trifluorobutanamido)methyl)imidazo[1,2-b]pyridazin-2-yl)(4,4-difluorocyclohexyl)methyl)isoxazole-4-carboxamide]: 7.39 and 6.89.
For `O=C(CCC(F)(F)F)NC(c1cnn2cc(C(NC(=O)c3ncnn3CC3CC3(F)F)C3CCC(F)(F)CC3)nc2c1)C1CC1` [Example 475, N—((R)-(7-((S)-Cyclopropyl(4,4,4-trifluorobutanamido)methyl)imidazo[1,2-b]pyridazin-2-yl)(4,4-difluorocyclohexyl)methyl)-1-((2,2-difluorocyclopropyl)methyl)-1H-1,2,4-triazole-5-carboxamide] the same measures were 6.89 and 6.48.
On to `CC(F)(F)CCn1ncnc1C(=O)N[C@H](c1cn2ncc([C@H](NC(=O)CCC(F)(F)F)C3CC3)cc2n1)C1CCC(F)(F)CC1` [Example 476, N—((S)-(7-((R)-Cyclopropyl(4,4,4-trifluorobutanamido)methyl)imidazo[1,2-b]pyridazin-2-yl)(4,4-difluorocyclohexyl)methyl)-1-(3,3-difluorobutyl)-1H-1,2,4-triazole-5-carboxamide], for which the results for the pIC50 in test [1] and in test [2] were 6.89 and 6.41, respectively.
For `CC(F)(F)Cn1ncnc1C(=O)N[C@H](c1cn2ncc([C@H](NC(=O)CCC(F)(F)F)C3CC3)cc2n1)C1CCC(F)(F)CC1` [Example 477, N—((S)-(7-((R)-Cyclopropyl(4,4,4-trifluorobutanamido)methyl)imidazo[1,2-b]pyridazin-2-yl)(4,4-difluorocyclohexyl)methyl)-1-(2,2-difluoropropyl)-1H-1,2,4-triazole-5-carboxamide] the same measures were 6.54 and 5.85.
The matching figures for `C[C@@H](n1ncnc1C(=O)N[C@H](c1cn2ncc([C@H](NC(=O)CCC(F)(F)F)C3CC3)cc2n1)C1CCC(F)(F)CC1)C(F)(F)F` [Example 478, N—((S)-(7-((R)-Cyclopropyl(4,4,4-trifluorobutanamido)methyl)imidazo[1,2-b]pyridazin-2-yl)(4,4-difluorocyclohexyl)methyl)-1-((R)-1,1,1-trifluoropropan-2-yl)-1H-1,2,4-triazole-5-carboxamide]: 6.35 and 6.07.
For `CC(C(F)F)n1ncnc1C(=O)N[C@H](c1cn2ncc([C@H](NC(=O)CCC(F)(F)F)C3CC3)cc2n1)C1CCC(F)(F)CC1` (stereo partly drawn) [Example 479, N—((S)-(7-((R)-Cyclopropyl(4,4,4-trifluorobutanamido)methyl)imidazo[1,2-b]pyridazin-2-yl)(4,4-difluorocyclohexyl)methyl)-1-(1,1-difluoropropan-2-yl)-1H-1,2,4-triazole-5-carboxamide] the same measures were 6.72 and 6.37.
Regarding `CC(C)c1scnc1C(=O)N[C@H](c1cn2ncc([C@H](NC(=O)CCC(F)(F)F)C3CC3)cc2n1)C1CCC(F)(F)CC1` [Example 480, N—((S)-(7-((R)-Cyclopropyl(4,4,4-trifluorobutanamido)methyl)imidazo[1,2-b]pyridazin-2-yl)(4,4-difluorocyclohexyl)methyl)-5-isopropylthiazole-4-carboxamide], the pIC50 in test [1] was 6.85; in test [2] it was 6.33.
